Laboratory results as given in the supplement of paper PMC10883282.
± gives the standard deviation of the averaged measurements.

How the values were obtained:
Test in all cases: relative viability vs DMSO control (72 h) (fraction); higher = more viable cells
SYO-1 = system: SYO-1
In short: (§1)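 Relative viability is percent growth read by ATPLite and averaged over up to triplicate wells. Sarcoma cells were seeded in 384-well plates to reach 80–90% confluence and given 2.5 µl of serially diluted compound after 24 h, from source plates of 10 mM to 0.0002 mM. Incubation lasted 72 h at 37 °C, 5% CO2, with 0.1% DMSO vehicle and a 5 µM positive control, and the data were rescaled so 1 equals full and 0 equals none.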

SK-LMS-1 = system: SK-LMS-1
In short: as §1

RD = system: RD
In short: as §1

HS729 = system: HS729
In short: as §1

SK-ES-1 = system: SK-ES-1
In short: as §1

A204 = system: A204
In short: as §1

VA-ES-BJ = system: VA-ES-BJ
In short: as §1

KHOS-NP = system: KHOS-NP
In short: as §1

SW872 = system: SW872
In short: as §1

MES-SA = system: MES-SA
In short: as §1

G401 = system: G401
In short: as §1

SW684 = system: SW684
In short: as §1

`C=CC(=O)Nc1cccc(Nc2nc(Nc3ccc(N4CCN(C(C)=O)CC4)cc3OC)ncc2C(F)(F)F)c1` [Rociletinib] showed a relative viability (SYO-1; 0.00017 µM) of 0.99 ± 0.029, a relative viability (SYO-1; 0.00051 µM) of 0.983 ± 0.053 and a relative viability (SYO-1; 0.00152 µM) of 0.949 ± 0.05. It also gave a relative viability (SYO-1; 0.00457 µM) of 0.93 ± 0.061, a relative viability (SYO-1; 0.01372 µM) of 0.893 ± 0.044 and a relative viability (SYO-1; 0.04115 µM) of 0.903 ± 0.041. It also gave a relative viability (SYO-1; 0.1235 µM) of 0.872 ± 0.047, a relative viability (SYO-1; 0.3704 µM) of 0.867 ± 0.12 and a relative viability (SYO-1; 1.111 µM) of 0.749 ± 0.099. For the same compound, the relative viability (SYO-1; 3.333 µM) was 0.459 ± 0.061, the relative viability (SYO-1; 10 µM) was 0.118 ± 0.024 and the relative viability (SK-LMS-1; 0.00017 µM) was 1.07 ± 0.012. For the same compound, the relative viability (SK-LMS-1; 0.00051 µM) was 1.089 ± 0.0035, the relative viability (SK-LMS-1; 0.00152 µM) was 1.07 ± 0.058 and the relative viability (SK-LMS-1; 0.00457 µM) was 1.07 ± 0.025. It also gave a relative viability (SK-LMS-1; 0.01372 µM) of 1.05 ± 0.069, a relative viability (SK-LMS-1; 0.04115 µM) of 1.03 ± 0.019 and a relative viability (SK-LMS-1; 0.1235 µM) of 1.04 ± 0.012. The relative viability (SK-LMS-1; 0.3704 µM) was 0.961 ± 0.06, the relative viability (SK-LMS-1; 1.111 µM) was 0.847 ± 0.033 and the relative viability (SK-LMS-1; 3.333 µM) was 0.638 ± 0.0093. For the same compound, the relative viability (SK-LMS-1; 10 µM) was 0.373 ± 0.023, the relative viability (RD; 0.00017 µM) was 1.04 ± 0.051 and the relative viability (RD; 0.00051 µM) was 1.078 ± 0.007. For the same compound, the relative viability (RD; 0.00152 µM) was 1.08 ± 0.017, the relative viability (RD; 0.00457 µM) was 1.112 ± 0.0076 and the relative viability (RD; 0.01372 µM) was 1.11 ± 0.035. It also gave a relative viability (RD; 0.04115 µM) of 1.08 ± 0.03, a relative viability (RD; 0.1235 µM) of 1.11 ± 0.021 and a relative viability (RD; 0.3704 µM) of 1.05 ± 0.017. For the same compound, the relative viability (RD; 1.111 µM) was 0.911 ± 0.043, the relative viability (RD; 3.333 µM) was 0.594 ± 0.025 and the relative viability (RD; 10 µM) was 0.293 ± 0.015. The relative viability (HS729; 0.00017 µM) was 1.01 ± 0.07, the relative viability (HS729; 0.00051 µM) was 0.925 ± 0.032 and the relative viability (HS729; 0.00152 µM) was 0.9024 ± 0.0057. For the same compound, the relative viability (HS729; 0.00457 µM) was 0.9205 ± 0.0092, the relative viability (HS729; 0.01372 µM) was 0.902 ± 0.06 and the relative viability (HS729; 0.04115 µM) was 0.924 ± 0.026. It also gave a relative viability (HS729; 0.1235 µM) of 0.89 ± 0.086, a relative viability (HS729; 0.3704 µM) of 0.812 ± 0.051 and a relative viability (HS729; 1.111 µM) of 0.697 ± 0.022. For the same compound, the relative viability (HS729; 3.333 µM) was 0.573 ± 0.049, the relative viability (HS729; 10 µM) was 0.343 ± 0.021 and the relative viability (SK-ES-1; 0.00017 µM) was 0.973 ± 0.033. It also gave a relative viability (SK-ES-1; 0.00051 µM) of 1.02 ± 0.036, a relative viability (SK-ES-1; 0.00152 µM) of 1.03 ± 0.027 and a relative viability (SK-ES-1; 0.00457 µM) of 1.06 ± 0.045. For the same compound, the relative viability (SK-ES-1; 0.01372 µM) was 1 ± 0.073, the relative viability (SK-ES-1; 0.04115 µM) was 1.03 ± 0.071 and the relative viability (SK-ES-1; 0.1235 µM) was 1.02 ± 0.025. It also gave a relative viability (SK-ES-1; 0.3704 µM) of 0.943 ± 0.05, a relative viability (SK-ES-1; 1.111 µM) of 0.658 ± 0.07 and a relative viability (SK-ES-1; 3.333 µM) of 0.232 ± 0.024. It also gave a relative viability (SK-ES-1; 10 µM) of 0.0621 ± 0.0023, a relative viability (A204; 0.00017 µM) of 1.06 ± 0.024 and a relative viability (A204; 0.00051 µM) of 1.08 ± 0.042. For the same compound, the relative viability (A204; 0.00152 µM) was 1.13 ± 0.069, the relative viability (A204; 0.00457 µM) was 1.1 ± 0.081 and the relative viability (A204; 0.01372 µM) was 1.12 ± 0.078. The relative viability (A204; 0.04115 µM) was 1.04 ± 0.071, the relative viability (A204; 0.1235 µM) was 1.11 ± 0.041 and the relative viability (A204; 0.3704 µM) was 1.08 ± 0.012. For the same compound, the relative viability (A204; 1.111 µM) was 1.03 ± 0.087, the relative viability (A204; 3.333 µM) was 0.589 ± 0.023 and the relative viability (A204; 10 µM) was 0.302 ± 0.032. For the same compound, the relative viability (VA-ES-BJ; 0.00017 µM) was 1.04 ± 0.071, the relative viability (VA-ES-BJ; 0.00051 µM) was 1.05 ± 0.025 and the relative viability (VA-ES-BJ; 0.00152 µM) was 1.02 ± 0.056. The relative viability (VA-ES-BJ; 0.00457 µM) was 1.03 ± 0.039, the relative viability (VA-ES-BJ; 0.01372 µM) was 0.981 ± 0.046 and the relative viability (VA-ES-BJ; 0.04115 µM) was 0.991 ± 0.043. It also gave a relative viability (VA-ES-BJ; 0.1235 µM) of 0.994 ± 0.02, a relative viability (VA-ES-BJ; 0.3704 µM) of 0.972 ± 0.043 and a relative viability (VA-ES-BJ; 1.111 µM) of 0.915 ± 0.038. For the same compound, the relative viability (VA-ES-BJ; 3.333 µM) was 0.648 ± 0.066, the relative viability (VA-ES-BJ; 10 µM) was 0.399 ± 0.021 and the relative viability (KHOS-NP; 0.00017 µM) was 1.09 ± 0.035. For the same compound, the relative viability (KHOS-NP; 0.00051 µM) was 1.1 ± 0.015, the relative viability (KHOS-NP; 0.00152 µM) was 1.113 ± 0.0067 and the relative viability (KHOS-NP; 0.00457 µM) was 1.09 ± 0.017. It also gave a relative viability (KHOS-NP; 0.01372 µM) of 1.09 ± 0.025, a relative viability (KHOS-NP; 0.04115 µM) of 1.06 ± 0.022 and a relative viability (KHOS-NP; 0.1235 µM) of 1.09 ± 0.023. For the same compound, the relative viability (KHOS-NP; 0.3704 µM) was 1.07 ± 0.017, the relative viability (KHOS-NP; 1.111 µM) was 1.06 ± 0.036 and the relative viability (KHOS-NP; 3.333 µM) was 1.025 ± 0.005. It also gave a relative viability (KHOS-NP; 10 µM) of 0.537 ± 0.028, a relative viability (SW872; 0.00017 µM) of 1.1 ± 0.041 and a relative viability (SW872; 0.00051 µM) of 1.08 ± 0.052. It also gave a relative viability (SW872; 0.00152 µM) of 1.07 ± 0.029, a relative viability (SW872; 0.00457 µM) of 1.07 ± 0.011 and a relative viability (SW872; 0.01372 µM) of 1.05 ± 0.034. The relative viability (SW872; 0.04115 µM) was 1.048 ± 0.0097, the relative viability (SW872; 0.1235 µM) was 1.04 ± 0.027 and the relative viability (SW872; 0.3704 µM) was 1.01 ± 0.043. It also gave a relative viability (SW872; 1.111 µM) of 0.89 ± 0.019, a relative viability (SW872; 3.333 µM) of 0.713 ± 0.015 and a relative viability (SW872; 10 µM) of 0.475 ± 0.023. For the same compound, the relative viability (MES-SA; 0.00017 µM) was 0.95 ± 0.023, the relative viability (MES-SA; 0.00051 µM) was 0.955 ± 0.016 and the relative viability (MES-SA; 0.00152 µM) was 0.942 ± 0.031. For the same compound, the relative viability (MES-SA; 0.00457 µM) was 0.957 ± 0.028, the relative viability (MES-SA; 0.01372 µM) was 0.942 ± 0.017 and the relative viability (MES-SA; 0.04115 µM) was 0.944 ± 0.018. The relative viability (MES-SA; 0.1235 µM) was 0.926 ± 0.051, the relative viability (MES-SA; 0.3704 µM) was 0.9383 ± 0.0079 and the relative viability (MES-SA; 1.111 µM) was 0.765 ± 0.01. It also gave a relative viability (MES-SA; 3.333 µM) of 0.329 ± 0.012, a relative viability (MES-SA; 10 µM) of 0.193 ± 0.014 and a relative viability (G401; 0.00017 µM) of 1.04 ± 0.039. For the same compound, the relative viability (G401; 0.00051 µM) was 1.07 ± 0.048, the relative viability (G401; 0.00152 µM) was 1.04 ± 0.013 and the relative viability (G401; 0.00457 µM) was 1.05 ± 0.061. It also gave a relative viability (G401; 0.01372 µM) of 1.04 ± 0.054, a relative viability (G401; 0.04115 µM) of 1.02 ± 0.052 and a relative viability (G401; 0.1235 µM) of 1.05 ± 0.033. The relative viability (G401; 0.3704 µM) was 1.02 ± 0.048, the relative viability (G401; 1.111 µM) was 0.827 ± 0.029 and the relative viability (G401; 3.333 µM) was 0.54 ± 0.014. The relative viability (G401; 10 µM) was 0.211 ± 0.016, the relative viability (SW684; 0.00017 µM) was 1.13 ± 0.041 and the relative viability (SW684; 0.00051 µM) was 1.16 ± 0.057. The relative viability (SW684; 0.00152 µM) was 1.16 ± 0.045, the relative viability (SW684; 0.00457 µM) was 1.17 ± 0.022 and the relative viability (SW684; 0.01372 µM) was 1.18 ± 0.015. For the same compound, the relative viability (SW684; 0.04115 µM) was 1.18 ± 0.076, the relative viability (SW684; 0.1235 µM) was 1.14 ± 0.016 and the relative viability (SW684; 0.3704 µM) was 1.1 ± 0.053. It also gave a relative viability (SW684; 1.111 µM) of 1.004 ± 0.0092, a relative viability (SW684; 3.333 µM) of 0.908 ± 0.016 and a relative viability (SW684; 10 µM) of 0.666 ± 0.046.
